Tests used:
Nicotinic Acetylcholine = assay: Eurofins lead profiling screen (radioligand binding); set-up: species or system Human
Adenosine A1 = Adenosine A1 (Homo sapiens, UniProt P30542); assay: as above
Adrenergic β2 = Adrenergic β2 (Homo sapiens, UniProt P07550); assay: as above
Glutamate, Kainate = assay: as above; set-up: species or system Rat
Imidazoline I2, Central = assay: as above; set-up: species or system Rat
Histamine H1 = Histamine H1 (Homo sapiens, UniProt P35367); assay: as above
Chain of Histamine H1 (P35367 whole entry): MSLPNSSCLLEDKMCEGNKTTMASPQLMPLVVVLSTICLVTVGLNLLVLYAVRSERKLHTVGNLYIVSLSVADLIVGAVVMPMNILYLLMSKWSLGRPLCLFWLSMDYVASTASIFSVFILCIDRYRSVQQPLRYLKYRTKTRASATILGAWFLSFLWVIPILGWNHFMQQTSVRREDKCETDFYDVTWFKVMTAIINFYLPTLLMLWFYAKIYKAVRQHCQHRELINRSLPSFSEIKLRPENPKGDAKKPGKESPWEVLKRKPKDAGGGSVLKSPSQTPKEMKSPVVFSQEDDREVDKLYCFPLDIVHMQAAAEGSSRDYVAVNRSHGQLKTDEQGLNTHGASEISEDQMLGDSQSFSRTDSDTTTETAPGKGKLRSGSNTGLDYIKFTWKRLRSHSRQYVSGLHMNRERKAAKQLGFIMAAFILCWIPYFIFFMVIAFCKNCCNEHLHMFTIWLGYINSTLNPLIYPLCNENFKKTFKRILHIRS

[1] = target: Nicotinic Acetylcholine α1, Bungarotoxin (Homo sapiens, UniProt P02708+P07510+Q07001); assay: biochemical; type: binding; conditions: read-out: % Inhibition at 10 µM
Chain of Nicotinic Acetylcholine α1, Bungarotoxin (P11230 24-501): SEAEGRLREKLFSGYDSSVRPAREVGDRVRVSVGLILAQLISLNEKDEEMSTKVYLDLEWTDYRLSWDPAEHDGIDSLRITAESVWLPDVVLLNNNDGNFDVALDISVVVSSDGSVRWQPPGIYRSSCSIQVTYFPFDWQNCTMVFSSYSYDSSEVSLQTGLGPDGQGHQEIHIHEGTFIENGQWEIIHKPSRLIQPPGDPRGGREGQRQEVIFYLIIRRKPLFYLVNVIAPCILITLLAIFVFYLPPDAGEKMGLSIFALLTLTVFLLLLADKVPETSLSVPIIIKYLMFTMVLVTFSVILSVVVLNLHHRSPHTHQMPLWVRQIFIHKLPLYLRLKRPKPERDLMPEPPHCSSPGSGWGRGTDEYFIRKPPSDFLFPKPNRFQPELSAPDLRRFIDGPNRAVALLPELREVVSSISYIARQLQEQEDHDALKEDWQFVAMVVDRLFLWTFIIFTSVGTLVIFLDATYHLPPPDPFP
Chain of Nicotinic Acetylcholine α1, Bungarotoxin (P02708 21-457): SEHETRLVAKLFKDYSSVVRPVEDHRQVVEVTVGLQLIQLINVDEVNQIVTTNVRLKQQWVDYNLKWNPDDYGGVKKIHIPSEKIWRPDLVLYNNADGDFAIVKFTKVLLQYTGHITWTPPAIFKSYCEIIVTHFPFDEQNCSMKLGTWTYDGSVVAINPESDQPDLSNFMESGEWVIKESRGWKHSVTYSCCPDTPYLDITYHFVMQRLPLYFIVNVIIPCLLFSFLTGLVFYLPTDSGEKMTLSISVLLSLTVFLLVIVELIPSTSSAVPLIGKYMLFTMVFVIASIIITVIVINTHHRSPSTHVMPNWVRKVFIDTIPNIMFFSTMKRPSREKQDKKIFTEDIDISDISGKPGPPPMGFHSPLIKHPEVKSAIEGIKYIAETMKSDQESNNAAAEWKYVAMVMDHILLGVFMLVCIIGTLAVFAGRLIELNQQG
Chain of Nicotinic Acetylcholine α1, Bungarotoxin (P07510 23-517): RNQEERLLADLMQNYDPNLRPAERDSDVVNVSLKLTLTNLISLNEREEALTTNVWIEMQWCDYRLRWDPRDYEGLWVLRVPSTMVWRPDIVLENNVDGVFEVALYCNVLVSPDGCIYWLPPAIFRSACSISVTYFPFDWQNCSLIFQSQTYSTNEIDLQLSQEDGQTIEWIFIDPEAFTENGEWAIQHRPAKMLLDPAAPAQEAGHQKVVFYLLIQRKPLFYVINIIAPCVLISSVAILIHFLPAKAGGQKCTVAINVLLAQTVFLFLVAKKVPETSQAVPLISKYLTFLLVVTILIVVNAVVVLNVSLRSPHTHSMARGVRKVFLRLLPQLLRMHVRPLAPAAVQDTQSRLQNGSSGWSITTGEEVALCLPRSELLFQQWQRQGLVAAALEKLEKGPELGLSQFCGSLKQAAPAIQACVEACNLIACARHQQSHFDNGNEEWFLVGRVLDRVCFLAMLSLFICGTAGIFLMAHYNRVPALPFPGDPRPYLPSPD
Chain of Nicotinic Acetylcholine α1, Bungarotoxin (Q07001 22-517): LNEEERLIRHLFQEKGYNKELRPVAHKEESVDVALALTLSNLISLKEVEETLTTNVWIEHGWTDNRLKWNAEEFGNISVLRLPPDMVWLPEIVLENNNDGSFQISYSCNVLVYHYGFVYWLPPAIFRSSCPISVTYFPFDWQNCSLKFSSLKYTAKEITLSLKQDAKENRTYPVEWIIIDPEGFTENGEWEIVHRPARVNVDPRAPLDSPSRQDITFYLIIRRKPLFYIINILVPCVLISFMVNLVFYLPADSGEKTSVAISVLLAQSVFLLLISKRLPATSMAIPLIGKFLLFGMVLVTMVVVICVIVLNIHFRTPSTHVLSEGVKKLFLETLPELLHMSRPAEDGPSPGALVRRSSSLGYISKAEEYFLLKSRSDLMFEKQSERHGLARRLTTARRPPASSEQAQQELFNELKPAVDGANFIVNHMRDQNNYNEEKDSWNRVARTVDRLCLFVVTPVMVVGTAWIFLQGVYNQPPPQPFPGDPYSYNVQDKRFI

[2] = target: Platelet Activating Factor (PAF) (Homo sapiens, UniProt P25105); assay: Eurofins lead profiling screen (radioligand binding)
Chain of Platelet Activating Factor (PAF) (P25105 whole entry): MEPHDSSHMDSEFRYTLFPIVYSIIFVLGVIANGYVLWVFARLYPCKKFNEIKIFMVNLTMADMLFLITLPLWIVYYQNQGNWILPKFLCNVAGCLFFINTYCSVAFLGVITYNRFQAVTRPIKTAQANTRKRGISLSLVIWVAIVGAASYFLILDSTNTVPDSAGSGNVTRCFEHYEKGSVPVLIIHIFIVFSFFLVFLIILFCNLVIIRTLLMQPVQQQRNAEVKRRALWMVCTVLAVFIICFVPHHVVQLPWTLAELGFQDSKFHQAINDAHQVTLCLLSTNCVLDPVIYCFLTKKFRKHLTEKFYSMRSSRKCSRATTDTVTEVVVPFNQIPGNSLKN

Thyroid Hormone = assay: as above; set-up: species or system Rat
[3] = Liver microsome intrinsic clearance (rat); type: in vitro ADME; conditions: pH 7.4; rat liver microsomes; read-out: LMS CLINT rat
Method: (§1) After a 5 min preincubation, the reaction was initiated by the addition of NADPH (1 mM). At selected time intervals between 0 ~ 60 min (e.g. 0, 3, 7, 15, 25, 45 and/or 60 min), aliquots were taken and subsequently placed into a 96-well plate containing cold acetonitrile with an internal standard (50 ng/mL carbamazepine). Plates were then centrifuged at 3000 rcf (4 °C) for 10 min, and the supernatant was transferred to a separate 96-well plate and diluted 1:1 with water for LC/MS/MS analysis. The in vitro half-life (T 1/2, min, Eq. 1), intrinsic clearance (CLint, mL/min/kg, Eq. 2), and subsequent predicted hepatic clearance (CLhep, mL/min/kg, Eq. 3) were determined employing the following equations: […]
(§2) where k represents the slope from linear regression analysis of the natural log percent remaining of a test compound as a function of incubation time […]
(§3) (2) CLint = in vitroT1/2 x mg microsomes x gram liver x kg body wt ascale-up factors: of 20 (human) or 45 (rat) or 87.5 (mouse) […]
(§4) where Qh (hepatic blood flow, mL/min/kg) is 21 (human) or 70 (rat) or 90 (mouse).
(§5) LC/MS/MS Bioanalysis of Samples from Plasma Protein Binding and Intrinsic Clearance […]
(§6) Samples were analyzed on a Thermo Electron TSQ Quantum Ultra triple quad mass spectrometer (San Jose, CA) via electrospray ionization (ESI) with two Themo Electron Accella pumps (San Jose, CA), and a Leap Technologies CTC PAL autosampler (Carrboro, NC). Analytes were separated by gradient elution on a dual column system with two Thermo Hypersil Gold (2.1 x 30 mm, 1.9 µm) columns (San Jose, CA) thermostated at 40 °C. HPLC mobile phase A was 0.1% formic acid in water and mobile phase B was 0.1% formic acid in acetonitrile. The gradient started […]
(§7) for 0.2 min; returned to 10% B in 0.1 min. The total run time was 1.3 min and the HPLC flow rate was 0.8 mL/min. While pump 1 ran the gradient method, pump 2 equilibrated the alternate column isocratically at 10% B. Compound optimization, data collection, and processing were performed using Thermo Electron's QuickQuan software (v2.3) and Xcalibur (v2.0.7 SP1). […]

[4] = Liver microsome intrinsic clearance (mouse); type: in vitro ADME; conditions: pH 7.4; mouse liver microsomes; read-out: LMS CLINT mouse
Method: as §1, §2, §3, §4, §5, §6, §7

[5] = Brain homogenate binding (rat); type: in vitro ADME
Method: 0.3% DMSO - ΔRatio of 1 µM control compound)x100
In vitro Plasma protein binding and Brain homogenate binding: Determination of fraction unbound (f u) in plasma was conducted in vitro via equilibrium dialysis using HTDialysis (HTD) membrane plates. The top half of the plate was filled with 100 uL of Dubelco’s Phosphate Buffered Saline, pH 7.4 (DPBS). Compounds were diluted into plasma from each species (5 µM final concentration), which was aliquoted in triplicate to the ‘bottom half’ of the prepared HTD plate wells. The HTD plate was sealed and incubated for 6 hours at 37 °C. […]
The unbound fraction (f u) was calculated following the equation below, and mean values for each species were calculated from 3 replicates. […] Fraction unbound for both plasma and brain samples was determined using Equation 4. […]
The diluted fraction unbound (fu2) in brain was calculated in the same manner by using brain homogenate rather than plasma. Undiluted fraction unbound for the brain was calculated using […]
were incubated in 100 mM potassium phosphate pH 7.4 buffer with 3 mM MgCl2 at 37 °C with constant shaking. […] The in vitro half-life (T 1/2, min, Eq. 1), intrinsic clearance (CLint, mL/min/kg, Eq. 2), and subsequent predicted hepatic clearance (CLhep, mL/min/kg, Eq. 3) were determined employing the following equations: […]

Chain of Adrenergic β2 (P07550 whole entry): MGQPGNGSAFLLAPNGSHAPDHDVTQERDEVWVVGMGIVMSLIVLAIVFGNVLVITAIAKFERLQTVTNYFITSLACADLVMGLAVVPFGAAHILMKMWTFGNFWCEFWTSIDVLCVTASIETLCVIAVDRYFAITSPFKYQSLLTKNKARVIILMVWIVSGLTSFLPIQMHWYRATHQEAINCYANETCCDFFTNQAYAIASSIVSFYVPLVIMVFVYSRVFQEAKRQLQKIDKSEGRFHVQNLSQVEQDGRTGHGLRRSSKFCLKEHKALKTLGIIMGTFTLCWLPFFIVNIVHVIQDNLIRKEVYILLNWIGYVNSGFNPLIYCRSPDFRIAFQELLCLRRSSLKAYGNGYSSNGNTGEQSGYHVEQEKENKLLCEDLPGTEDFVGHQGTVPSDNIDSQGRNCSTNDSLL
Chain of Adenosine A1 (P30542 whole entry): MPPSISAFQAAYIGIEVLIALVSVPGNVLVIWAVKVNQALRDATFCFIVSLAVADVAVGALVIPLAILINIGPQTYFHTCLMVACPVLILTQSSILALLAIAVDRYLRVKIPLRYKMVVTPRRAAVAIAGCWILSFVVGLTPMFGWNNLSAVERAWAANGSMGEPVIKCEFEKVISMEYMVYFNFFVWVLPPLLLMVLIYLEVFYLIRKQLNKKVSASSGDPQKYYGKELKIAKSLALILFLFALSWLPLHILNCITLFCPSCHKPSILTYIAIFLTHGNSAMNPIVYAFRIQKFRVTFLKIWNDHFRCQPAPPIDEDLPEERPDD

Compound | % Inhibition at 10 µM (Nicotinic Acetylcholine) [%] | inhibition at 10 µM (Adenosine A1) [%] | inhibition at 10 µM (Adrenergic β2) [%] | % Inhibition at 10 µM (Glutamate, Kainate) [%] | % Inhibition at 10 µM (Imidazoline I2, Central) [%] | inhibition at 10 µM (Histamine H1) [%] | inhibition at 10 µM [1] [%] | inhibition at 10 µM [2] [%] | % Inhibition at 10 µM (Thyroid Hormone) [%] | CLint scaled at 1 µM [3] [L/h/kg] | CLint scaled at 1 µM [4] [L/h/kg] | brain homogenate binding rat [5] [%]
O=C(NCc1ccc(OC(F)(F)F)cc1F)c1ccc2ncnn2c1 [ONO-2920632] | -10 | 2 | 4 | 3 | 10 | 12 | -4 | 26 | 3 | – | – | –
Cc1cc(C#Cc2ccc(F)cc2)cnc1NC(=O)c1cc(NC(=O)OC(C)(C)C)ccc1Cl [Compound 14c] | – | – | – | – | – | – | – | – | – | 1.74 | 0.78 | > 99.9

Reference: article PMC12067145 (ACS Medicinal Chemistry Letters, 2025)
